Measurements from BindingDB's records for patent USRE47493 (Boehringer Ingelheim International, 2019).

Target: T1, Neutrophil elastase (Homo sapiens, UniProt P08246)
T1 sequence (P08246 whole entry): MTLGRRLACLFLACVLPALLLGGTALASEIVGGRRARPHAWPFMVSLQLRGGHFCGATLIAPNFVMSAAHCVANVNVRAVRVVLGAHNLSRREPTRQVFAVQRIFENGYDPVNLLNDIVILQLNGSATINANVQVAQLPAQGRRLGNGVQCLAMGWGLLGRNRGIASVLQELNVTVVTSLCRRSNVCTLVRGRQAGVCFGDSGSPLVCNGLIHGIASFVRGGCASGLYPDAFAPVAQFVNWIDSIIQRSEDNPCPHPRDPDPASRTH
Experiment: Enzyme Inhibition Assay
Experimental: All other materials were of the highest grade commercially available.The following buffers were used: Compound buffer: 100 mM Tris, 500 mM NaCl, adjusted to pH 7.5; Assay buffer: 100 mM Tris, 500 mM NaCl, adjusted to pH 7.5, containing 0.01% BSA.Assay conditions: Test compounds were prediluted in DMSO and subsequently in compound buffer (5% DMSO final). […] After inactivation of the enzyme, fluorescence intensities were measured at 380 nm excitation and 460 nm emission wavelengths.

IC50 [nM] | Structure (SMILES)
< 1 | N#Cc1ccc(C2C3=C(CCCC3=O)N(c3cccc(C(F)(F)F)c3)C(=O)N2C(=O)NC2CCC[C@@H]2O)cc1 (some centres not stated) [USRE47493, Example 70.12]
1.1 | N#Cc1ccc(C2C3=C(CCCC3=O)N(c3cccc(C(F)(F)F)c3)C(=O)N2C(=O)NC2CCCC[C@@H]2O)cc1 (some centres not stated) [USRE47493, Example 70.17]
